What is called Ki is a measure of affinity in units of concentration, obtained from inhibition or displacement.

This assay concerns the target T1, FIH^K106A (Homo sapiens, UniProt Q9NWT6, K106A).
T1 construct: encoding for full-length FIH with an N-terminal His6 tag or for FIH (K106A) with an N-terminal His6 tag; His6 (N); host or cells: Escherichia coli BL21
The experiment in a line: Affinity-based fluorescence polarization (FP) assay with the FIH K106A variant, without and with irradiation. In kind it is binding. The settings on record: for Ki: read-out: Binding affinity to FIH^K106A: Ki. From the text: 4 (A) Light-induced click conjugation between NBA-ZG-2291 and FIH protein. (B) Light-induced binding affinity of NBA-ZG-2291 to FIH^ WT . (C) Light-induced binding affinity of NBA-ZG-2291 to FIH^ K106A . […] TEXT PRINTED IN THE PICTURE: (B) NBA-ZG-2291: Binding affinity to FIH^WT: Ki (nM): 414 ± 14 (Irradtion time (min): 0); Binding affinity to FIH^WT: Ki (nM): 74.1 ± 1.6 (Irradtion time (min): 15); Binding affinity to FIH^WT: Ki (nM): 46.7 ± 1.4 (Irradtion time (min): 30); Binding affinity to FIH^WT: Ki (nM): 33.2 ± 0.6 (Irradtion time (min): 60); Binding affinity to FIH^WT: Ki (nM): 30.2 ± 2.0 (Irradtion time (min): 90); Binding affinity to FIH^WT: Ki (nM): 32.1 ± 0.7 (Irradtion time (min): 120) | (B) Neg-1: Binding affinity to FIH^WT: Ki (nM): 423 ± 7 (Irradtion time (min): 0); Binding affinity to FIH^WT: Ki (nM): 408 ± 30 (Irradtion time (min): 15); Binding affinity to FIH^WT: Ki (nM): 459 ± 32 (Irradtion time (min): 30); Binding affinity to FIH^WT: Ki (nM): 427 ± 17 (Irradtion time (min): 60); Binding affinity to FIH^WT: Ki (nM): 396 ± 29 (Irradtion time (min): 90); Binding affinity to FIH^WT: Ki (nM): 428 ± 15 (Irradtion time (min): 120) | (B) Neg-2: Binding affinity to FIH^WT: Ki (nM): 742 ± 65 (Irradtion time (min): 0); Binding affinity to FIH^WT: Ki (nM): 799 ± 69 (Irradtion time (min): 15); Binding affinity to FIH^WT: Ki (nM): 758 ± 13 (Irradtion time (min): 30); Binding affinity to FIH^WT: Ki (nM): 744 ± 30 (Irradtion time (min): 60); Binding affinity to FIH^WT: Ki (nM): 788 ± 36 (Irradtion time (min): 90); Binding affinity to FIH^WT: Ki (nM): 786 ± 35 (Irradtion time (min): 120) | (C) NBA-ZG-2291: Binding affinity to FIH^K106A: Ki (nM): 442 ± 12 (Irradtion time (min): 0); Binding affinity to FIH^K106A: Ki (nM): 427 ± 22 (Irradtion time (min): 15); Binding affinity to FIH^K106A: Ki (nM): 426 ± 7 (Irradtion time (min): 30); Binding affinity to FIH^K106A: Ki (nM): 420 ± 11 (Irradtion time (min): 60); Binding affinity to FIH^K106A: Ki (nM): 418 ± 5 (Irradtion time (min): 90); Binding affinity to FIH^K106A: Ki (nM): 424 ± 12 (Irradtion time (min): 120) | (C) Neg-1: Binding affinity to FIH^K106A: Ki (nM): 271 ± 14 (Irradtion time (min): 0); Binding affinity to FIH^K106A: Ki (nM): 275 ± 15 (Irradtion time (min): 15); Binding affinity to FIH^K106A: Ki (nM): 268 ± 25 (Irradtion time (min): 30); Binding affinity to FIH^K106A: Ki (nM): 266 ± 22 (Irradtion time (min): 60); Binding affinity to FIH^K106A: Ki (nM): 264 ± 41 (Irradtion time (min): 90); Binding affinity to FIH^K106A: Ki (nM): 270 ± 3 (Irradtion time (min): 120) | (C) Neg-2: Binding affinity to FIH^K106A: Ki (nM): 567 ± 37 (Irradtion time (min): 0); Binding affinity to FIH^K106A: Ki (nM): 548 ± 61 (Irradtion time (min): 15); Binding affinity to FIH^K106A: Ki (nM): 521 ± 50 (Irradtion time (min): 30); Binding affinity to FIH^K106A: Ki (nM): 627 ± 17 (Irradtion time (min): 60); Binding affinity to FIH^K106A: Ki (nM): 565 ± 10 (Irradtion time (min): 90); Binding affinity to FIH^K106A: Ki (nM): 552 ± 38 (Irradtion time (min): 120) […]
To further verify the covalent binding between NBA-ZG-2291 and Lys106, the FIH^ K106A variant was produced and purified.
3. Experimental procedures
3.1 Fluorescence polarization (FP) assays1 with FIHWT and FIHK106A pET28a vectors encoding for full-length FIH with an N-terminal His6 tag or for FIH (K106A) with an N-terminal His6 tag were purchased from Nanjing Zoonbio Biotechnology. Both the FIHWT and FIHK106A protein were expressed from the respective plasmid in Escherichia coli BL21 at 20 °C for 16 h. E. coli cells were lysed and the lysate were clarified by centrifugation. His6-tagged FIHWT or FIHK106A was purified on a HisTrap affinity column (GE Healthcare) by elution with an imidazole gradient. The final purified proteins were stored in PBS buffer.
FP assays were carried out using 384 -well plates (#3575, Corning); the polarization signal was measured using a SPARK Multi-Mode Microplate Reader (Tecan). […]

Where two headings read alike, the source gives them in different places.

T1 sequence (Q9NWT6 whole entry K106A): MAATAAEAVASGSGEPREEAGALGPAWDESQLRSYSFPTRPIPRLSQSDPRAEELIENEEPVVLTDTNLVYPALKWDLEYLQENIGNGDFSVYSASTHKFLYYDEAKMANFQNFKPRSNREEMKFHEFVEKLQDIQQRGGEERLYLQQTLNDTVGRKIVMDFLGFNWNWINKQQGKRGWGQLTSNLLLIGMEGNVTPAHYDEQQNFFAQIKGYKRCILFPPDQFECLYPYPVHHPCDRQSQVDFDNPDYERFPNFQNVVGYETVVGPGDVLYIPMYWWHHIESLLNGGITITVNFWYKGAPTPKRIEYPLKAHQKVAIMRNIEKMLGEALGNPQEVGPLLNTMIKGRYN

Regarding `O=C(O)CNC(=O)c1ncc(-c2cc(-c3ccc(CO)c([N+](=O)[O-])c3)no2)cc1O` [NBA-ZG-2291], the “Effect of irradiation time on binding affinity for the FIH^K106A variant” value (FP assay, varying irradiation times) was “remained unchanged”. The Ki came out at 0.442 ± 0.012 µM (irradiation time 0 min); 0.427 ± 0.022 µM (irradiation time 15 min); 0.426 ± 0.007 µM (irradiation time 30 min); 0.42 ± 0.011 µM (irradiation time 60 min); 0.418 ± 0.005 µM (irradiation time 90 min); 0.424 ± 0.012 µM (irradiation time 120 min).
